Source: patent US8193235B2, “Compositions and methods for establishing and maintaining stem cells in an undifferentiated state” (University of Kansas, priority 2009, dated 2012)

What was measured:
[1] = test system: 129/Sv MEFs; assay: Generation of iPS cells from MEFs; format: cell-based, mouse
Procedure: Generation of iPS Cells. iPSCs were derived using lentiviral vectors (STEMGENT), expressing four mouse transcription factors (Oct4, Sox2, Klf4 […] c-Myc) under the control of the doxycycline (Dox)-inducible tetO operator. 129/Sv MEFs were infected with viral mix following manufacturer's protocol. Twenty hours post-transduction, cells were reseeded in ES cell growth medium with either LIF or Gö6983 at a density of 5×10^4 cells per well of a 6-well plate and treated with Dox (2 μg/ml) for 48 hours. To determine the phenotype of the iPS colonies, expression of two pluripotency markers, Nanog and Rex-1, were analyzed. For further analysis, each visible iPS colony was manually picked, trypsinized, cells were re-plated at clonal and higher density in medium with Gö6983 and the expression of pluripotent markers were confirmed by RT-PCR and immunofluorescence. For chimera generation, cells from two different iPS clones were propagated at clonal density with Gö6983, expanded for four passages and were injected into blastocysts.

[2] = test system: β-catenin; assay: Cytosolic β-catenin stabilization assay; format: cell-based, mouse; conditions: mESCs
Procedure: Cytosolic β-Catenin Stabilization Assay. ES cells were treated with Wnt3A-conditioned medium or Gö6983 or LIF for 10 hours, and lysed hypotonically on ice with 1× TE (pH 7.4) with protease inhibitors. Lysates were centrifuged at 100,000 g at 4° C. for 45 minutes to collect and analyze cytosolic fractions.

[3] = test system: E14 ES cells; assay: Cell Proliferation Assay; format: cell-based; conditions: Mus musculus
Procedure: Cell Proliferation Assay. E14 ES cells were seeded and incubated for 2 days in the presence of different concentrations of Gö6983. Cell proliferation was measured with […] 96 AQUEOUS One Solution Reagent (Promega, Madison, Wis.) following the manufacturer's protocol.

[4] = test system: R1 ES cells; assay: R1 ES cells without LIF and MEF feeder; format: cell-based, mouse
Procedure: R1 ES Cells. R1 Cells were maintained on MEF feeder in ES-IMDM media supplemented with 15% ES-cell quality serum, 10^5 U/100 ml of LIF. Cells were grown for 3-5 days with change of medium every day. For inducing differentiation in monolayer culture and to determine the effect of Gö6983, cells were cultured at feeder-free condition and without LIF for 7 days.

[5] = test system: E14 ES cells; assay: ES cell culture in the absence of LIF (undifferentiated state, marker expression); format: cell-based, mouse
Procedure: E14 ES Cell Cultures. Cells were grown in ES-IMDM media (Lonza, Walkersville, Md.) in a feeder-free condition. ES-IMDM was supplemented with 15% serum, 10^5 U/100 ml of LIF (ESGRO, Millipore, Calif.) and 0.0124% monothioglycerol (MTG; Sigma Aldrich). Cells were grown for 3-5 days with change of medium every day. For inducing differentiation in monolayer culture and to determine the effect of Gö6983 in preventing differentiation, E14 cells were cultured on gelatin-coated plastics for 8 days without LIF. Details of experiments performed at clonal-density are described herein. To maintain E14 cells with Gö6983, serum supplemented ES-IMDM was used in the presence of 5 μM Gö6983 and was passed after every 3-5 days. For all assays involving elucidation of different signaling mechanism responsible for maintenance of pluripotency, cells from a ˜70% confluent ES culture plate were washed two times with 1× phosphate-buffered saline (PBS), trypsinized and plated on a 6-well tissue culture plate and treated with or without LIF or Gö6983 or different inhibitors for ˜10 hours followed by preparation of protein lysates and RNA. The PKCζ knocked-down E14 cells that were generated in this study were maintained in serum supplemented ES-IMDM on gelatin-coated plates in the absence of Gö6983 or LIF or any other inhibitor and passed after 3-5 days. For the experiments herein, cells were continuously cultured at least for 5 consecutive passages (>18 days) on gelatin-coated plates without significant differentiation.
Quantitative RT-PCR Analysis. RNA was extracted from different cell samples with TRIZOL reagent (Invitrogen). cDNA was prepared by annealing RNA (1 μg) with 250 ng of a 5:1 mixture of random and oligo(dT) primers heated at 68° C. for 10 minutes. This was followed by incubation with Moloney murine leukemia virus reverse transcriptase (50 units) (Invitrogen, Carlsbad, Calif.) combined with 10 mM DTT, RNasin (PROMEGA, Madison, Wis.), and 0.5 mM dNTPs at 42° C. for 1 hour. Reactions were diluted to a final volume of 100 μl and heat inactivated at 97° C. for 5 minutes. Twenty μl PCR reactions contained 2 μl cDNA, 10 μl SYBR Green Master Mix (Applied Biosystems, Foster City, Calif.) and corresponding primer sets. Relative expression levels were determined from a standard curve of serial dilutions of proliferating ES cell cDNA samples and were normalized to the expression of glyceraldehyde-3-phosphate dehydrogenase (GAPDH). At least three independent experiments were done for each set of data.
Immunostaining. Immunostaining of Oct4, and Nanog expression was performed using standard protocols. Briefly, ES cells were fixed in 4% paraformaldehyde/4% sucrose, permeabilized with 0.1% TRITON X 100 (Sigma). Cells were blocked by adding 1% fish gelatin (Sigma, St. Louis, Mo.) and incubated overnight at 4° C. with 200 μl of primary antibodies. Fluorescent-conjugated secondary antibodies (ALEXA FLUOR 488, and ALEXA FLUOR 568, Molecular Probes, Invitrogen) were used at 1:250 dilutions to visualize cells. Images were captured using a LEICA fluorescence microscope.

[6] = test system: E14 ES cells; assay: ES cell differentiation on collagen IV and with retinoic acid; format: cell-based, mouse
Source text: ES Cell Differentiation on Collagen-IV and With Retinoic Acid. To differentiate ES cells in monolayer culture on collagen IV, around 3×10^4 cells per well were transferred to collagen IV-coated 6-well plates (BD Biosciences, Franklin Lakes, N.J.) cultured for 5 days in ES differentiation medium containing DMEM (Invitrogen), 15% FBS (selected for endothelial differentiation, Stem Cell Technologies, Vancouver, BC), sodium pyruvate and L-glutamine with or without LIF and Gö6983, and were recovered by cell dissociation buffer (BD Biosciences, Franklin Lakes, N.J.). For culturing multiple passages with Gö6983 on collagen-IV, the recovered cells were again plated at a density of ˜3×10^4 cells per well and cultured again for 5 days. […] For RA-induced differentiation on monolayer culture, ES cells were treated with all-trans-retinoic acid (Sigma, St. Louis, Mo.) in ethanol at a concentration of 1 μM with or without LIF and Gö6983 for 6 days followed by study of expression of pluripotency markers (by immunofluorescence or western blot or RT-PCR analysis).

For `COc1ccc2c(c1)c(C1=C(c3c[nH]c4ccccc34)C(=O)NC1=O)cn2CCCN(C)C` [Gö6983, 3-[1-[3-(dimethylamino)propyl]5-methoxy-1H-indol-3-yl]-4-(1H-indol-3-yl)-1H-pyrrole-2,5-dione], the “efficiency of obtaining matured iPSC colonies compared to LIF” value ([1]; FIG. 4B) was “three fold higher”, the “time to appearance of ES cell-like iPSC colonies” value ([1]; MEFs with Oct4, Sox2, KLF4, cMyc) was 12 days and the “rate of obtaining iPSC colonies compared to LIF” value ([1]; colonies defined by Nanog and Rex-1, FIG. 4A) was “significantly faster rate”. The “propagation of iPSCs at clonal density” value ([1]; with Gö6983) was “readily propagated at clonal density”, the β-catenin stabilization [2] was “did not stabilize” and the inhibition at 2.5 µM [3] was about 30%. For the same compound, the “maintenance of undifferentiated R1 ES cells” value [4] was “replaced the requirement of LIF and MEF”, the “ES cell differentiation at 2.5 μM” value ([5]; 2.5 μM, without LIF) was “almost completely inhibited” and the “concentration that efficiently maintained undifferentiated ES cell colony / inhibits mouse ES cell differentiation” value ([5]; concentration profile analysis, absence of LIF) was at least 2.5 µM. The “ES cell differentiation in the absence of LIF” value ([5]; mouse ES cells, without LIF) was “did not differentiate and maintained their undifferentiated colony morphology”, the “induction of developmental genes required for lineage commitment” value ([5]; quantitative RT-PCR, FIG. 1B) was “did not occur” and the “expression of pluripotency markers Oct4, Nanog, Sox2 and Rex-1” value ([5]; quantitative RT-PCR, without LIF, FIG. 1A) was “maintained the expression of pluripotency markers”. The “ES cell pluripotency in media with different batches of fetal bovine serum” value ([5]; serum from different sources) was “maintained ES cell pluripotency in all culture media irrespective of serum source”, the “multidifferentiation potential upon withdrawal of Gö6983” value ([6]; ES cells maintained five passages with Gö6983, then withdrawal, FIG. 1E) was “readily formed EBs or differentiated on collagen IV with induction of lineage-specific gene expression” and the “ES cell differentiation in the presence of collagen IV or retinoic acid” value ([6]; absence of LIF) was “inhibited ES cell differentiation”. The “lineage-specific gene expression on collagen IV” value ([6]; quantitative RT-PCR, FIG. 1D) was “repression of lineage-specific gene expression” and the “differentiation during continuous culture on collagen IV plates” value ([6]; without LIF, up to 8 consecutive passages) was “without any noticeable differentiation”.
